According to patent US9187784B2, “EphA4 is a disease modifier in motor neuron disease” (VIB VZW, priority 2011, dated 2015):
Marks after values point to notes of the source that are not given here.

Test system: mutant SOD1-overexpressing fish
Test: mutant SOD1-induced motor axonopathy in zebrafish embryos (percentage affected embryos, motor axon length)
Format: in vivo
Text: FIG. 1: EphA4 knockdown rescues mutant SOD1-induced motor axonopathy. […] Abnormal branching is indicated with arrowhead. Y-axes show motor axon length of zebrafish embryos expressing wild-type SOD1 (black bar, Panels D-G) or mutant SOD1 (white bar, Panels D-G). Knockdown of RTK2 in SOD1A4V- (Panel D), SOD1G93A- (Panel E) and SOD1G37R- (Panel F) expressing fish was established by co-injection of increasing amounts of atg-RTK2 morpholino (shaded bars). RTK1 expression was inhibited in SOD1A4V-expressing fish by co-injection of atg-RTK1 morpholino (shaded bars, Panel G). Ctr-RTK2 and ctr-RTK1 were used as control. ANOVA and Bonferroni's multiple comparison tests were used for statistical analysis. Comparing axonal length in SOD1A4V fish injected with ctr-RTK2 (n=39) vs. different doses atg-RTK2: 3 ng (n=43, p=0.0059), 4.5 ng (n=37, p=0.0016, Panel D), SOD1G93A: ctr-RTK2 (n=60) vs. atg-RTK2: 1.5 ng (n=55, p=0.015), 3 ng (n=51, p=2.82×10-9), 4.5 ng (n=46, p=2.22×10-15, Panel E), SOD1G37R: ctr-RTK2 (n=37) vs. atg-RTK2: 3 ng (n=25, p=0.027), 4.5 ng (n=36, p=0.0018, Panel F) and SOD1A4V: ctr-RTK1 (n=49) vs. atg-RTK1: 1.5 ng (n=51, p=2.51×10-7), 3 ng (n=64, p=7.99×10-10), 4.5 ng (n=54, p<1×10-20, Panel G). Western blot of SOD1WT or SOD1A4V (1.76 ng) expressing zebrafish embryos (30 hpf), co-injected with either ctr-RTK1 or atg-RTK1 (4.5 ng). Sixty embryos were used per group with actin as the loading control (H). Immunostaining of rtk1 (green) in rhombomeres 3 and 5 and of ephrin-b2 (magenta) in rhombomere 4 in zebrafish embryos injected with either ctr-RTK1 or atg-RTK1 (4.5 ng). RTK1-depleted embryos show disorganized rhombomere boundaries (arrowhead, I, Scale bar 50 μm). Error bars are s.e.m.
FIG. 2: RTK2 knockdown protects motor axons against SOD1^A4V-induced injury. Effect of RTK2 knockdown, established by injection of splice-rtk2 morpholino, on the motor axon length of SOD1^A4V-expressing zebrafish embryos (30 hpf). SOD1^WT-expressing fish and a non-functional five-base pair-mismatch control morpholino (ctr-RTK2) were used as control (Panel A). ANOVA and Bonferroni's multiple comparison tests were used for statistical analysis: SOD1^A4V/ctr-RTK2 (n=56) vs. SOD1^A4V/spl-RTK2 (n=60, 1.79×10^−4). Spl-RTK2 was designed against the exon 2 splice site of the zebrafish RTK2 pre-mRNA and alternatively skipped out exon 2. RT-PCR on non-transgenic fish (lane 1), ctr-RTK2-injected fish (lane 2) and spl-RTK2-injected fish (lane 3) at 30 hpf. Functional RTK2 mRNA, containing exon 2, is indicated by the 818-bp product (upper band) while non-functional RTK2 mRNA, lacking exon 2 is indicated by the 156-bp product (lower band), 60 embryos each group (Panel B). Error bars are s.e.m.
FIG. 12: Pharmacological inhibition of EphA4 receptor signaling protects against mutant SOD1 pathology in vivo. Effect of treatment with Compound 1 (C1, 500 μM) on the motor axon length of zebrafish embryos (30 hpf). DMSO (1/250 dilution) was used as control (Panel A). ANOVA and Bonferroni's multiple comparison tests were used for statistical analysis: SOD1^A4V/C1 (n=68) vs. SOD1^A4V/DMSO (n=76, p=3.54×10^−5). Effect of KYL-peptide (3 mM) treatment of 60-day-old SOD1^G93A rats on disease onset (Panel B) and survival (Panel C). Artificial CSF (ACSF) was used as control. Average disease onset: 133 days (treated, n=21) versus 125 days (control, n=17, T-test p=0.044). Average survival: 148 days (treated, n=21) versus 139 days (controls, n=17, T-test p=0.041). Error bars are s.e.m.
Effect of RTK2 knockdown (established by injection of atg-RTK2 morpholino) on the percentage of affected wild-type SOD1 or mutant SOD1 (A4V, G93A, G37R) zebrafish embryos (30 hpf). Ctr-RTK2 morpholino was used as control. An embryo was considered as affected when it had more than 10% abnormally branched motor axons. Significance of mtSOD1/ctr-RTK2 (4.5 ng) vs. mtSOD1/atg-RTK2 (4.5 ng) was determined by Mann-Whitney test, * p=0.0075, ° p=0.039 and # p=0.0052. […]

Compound: 5′-CTGTGAACACAAGCGCAGCCATTGG-′3 (all phosphorodiamidate morpholino (PMO)) [atg-RTK1]
- % affected fish (Table 4, SOD1A4V fish, morpholino 1.5 ng): 38 (24) %
- % affected fish (Table 4, SOD1A4V fish, morpholino 3 ng): 22 (33) %
- % affected fish (Table 4, SOD1A4V fish, morpholino 4.5 ng): 8* (26) %
- % affected fish (Table 4, SOD1WT fish, morpholino 4.5 ng): 14 (14) %

Compound: Cc1ccc(C)n1-c1ccc(C(=O)O)c(O)c1 [Compound C1]
- % affected fish (Table 4, SOD1A4V fish, C1 500 μM in the water): 11° (26) %
- % affected fish (Table 4, SOD1WT fish, C1 500 μM in the water): 15 (32) %
